{"source": "patent US20100311674A1", "about": "“PHARMACEUTICAL COMPOSITIONS WITH A MECHANISM OF MULTI-TARGET RECEPTOR RETROACTION FOR TREATING DEPRESSION” (Yu-Fen Chi, priority 2007, published 2010)", "key": {"[1]": {"tested_on": "ICR mice", "test": "Mouse tail-hanging experiment (Experiment 3)", "assay_type": "in vivo", "method": "3.1 Experimental animals: ICR mice, male, 22.0±2 g of body weight, secondary, are provided by the Experimental Animal Science Department of Capital Medical University, Beijing. 3.2 Experiment pharmaceuticals: The pharmaceutical of Embodiment 2 is provided by Beijing Wormer Biotech. […] High dose of Embodiment 2 (80 mg/kg/d); 2. middle dose of Embodiment 2 (40 mg/kg/d); and 3. low dose of Embodiment 2 (20 mg/kg/d). 3.5.1 Group division and administration of drug: The mice are grouped randomly, and 10 mice are in each group. 1. High dose of Embodiment 2 (80 mg/kg, P.O., administered for 7 days); 2. middle dose of Embodiment 2 (40 mg/kg, P.O., administered for 7 days); 3. low dose of Embodiment 2 (20 mg/kg, P.O., administered for 7 days); 4. […] After 1 hour of the last administration of drug, the mouse tail-hanging experiment is proceeded. 3.5.2 Experimental method: The mouse's tail (1 cm to the tail end) is taped on the wood strip higher than the platform for 5 cm and hung up for 6 minutes. The time of non-movement of the mouse for the last 5 minutes is recorded. 3.5.3 Statistic calculation: The experimental data are represented as X±SD, and the experimental result is calculated as ANOVA by SPSS 11.5 statistic software."}, "[2]": {"tested_on": "ICR mice", "test": "Resetpine-induced mouse body temperature decrease experiment (Experiment 4)", "assay_type": "in vivo", "from_the_text": "4.1 Experimental animals: ICR mice, male, 22.0±2 g of body weight, secondary, are provided by the Experimental Animal Science Department of Capital Medical University, Beijing.\n4.2 Experiment pharmaceuticals: The pharmaceutical of Embodiment 2 is provided by Beijing Wonner Biotech. Ltd. Co., Paroxetine (Paxil) is the product of Zhong Mei Tianjin Smith Kline pharmaceuticals Co. Ltd., and Resetpine is the product of Guangdong BangMin Pharmaceutical Co., Ltd.\n4.4 Dose designs: 1. High dose of Embodiment 2 (80 mg/kg/d); 2. middle dose of Embodiment 2 (40 mg/kg/d); and 3. low dose of Embodiment 2 (20 mg/kg/d).\n4.5.1 Group division and administration of drug: The mice are grouped randomly, and 10 mice are in each group. 1. High dose of Embodiment 2 (80 mg/kg, P.O., administered for 7 days); 2. middle dose of Embodiment 2 (40 mg/kg, P.O., administered for 7 days); 3. low dose of Embodiment 2 (20 mg/kg, P.O., administered for 7 days); 4.\n4.5.2 Experimental method: After 1 hour of the last administration of drug on the eighth day, the mouse's anal temperature is determined. […] After 4 hours of injecting Resetpine, the mouse's anal temperature is determined once again. […]\n4.5.3 Statistic calculation: The experimental data are represented as X±SD, and the experimental result is calculated as ANOVA by SPSS 11.5 statistic software."}, "[3]": {"tested_on": "unpredictable long-term stimulus model", "test": "Open field activity experiment, unpredictable long-term stimulus model (Experiment 8)", "assay_type": "in vivo, rat", "settings": "2 mg/kg/d into the stomach, 24 days; within 3 minutes", "from_the_text": "7.5.1 Open field activity experiment: The open field activity box (1 m×1 m×0.4 m) is constructed by the light blue plywood and the aluminum alloy frame. The box bottom is separated into 25 grids (20 cm×20 cm for each grid), the circumference is the peripheral grids (16 grids), and others are the central grids (9 grids). The rat is placed in the center of the central grids, and the rat's cross-grid number (the number of crossing into the neighboring gird more than 3 claws) and rat's standing number (two forelimbs leaving the ground for more than 1 cm) are calculated/observed within 3 minutes.\nUnpredictable long-term stimulus model: Health Wistar male rats, secondary, 240˜270 g of body weight, are purchased from Beijing Vital River Experimental Animal Technology Ltd. Co. (The quality certificate number: SOCK (JING) 2002-2003).\nThe above pharmaceuticals are prepared with 0.5% of sodium carboxymethylcellulose (CMC-Na) for feeding into the stomach. Benzylpenicillin sodium for injection is the product of North China Pharmaceutical Huasheng Co. Ltd. (Lot: S0511204), and norepinephrine (NE) and 5-hydrotryptamine (5-HT) standards are the products of Sigma Co. Other reagents are all marketed. […]\n8.6 Statistic calculation: The experimental data are represented as […], and the experimental result is calculated as ANOVA by SPSS 11.5 statistic software."}, "[4]": {"tested_on": "ICR mice", "test": "Mouse tail-hanging experiment (Experiment 9)", "assay_type": "in vivo", "method": "9.1 Experiment pharmaceuticals: The pharmaceutical of Embodiment 5 is provided by Beijing Wonner Biotech. […] Above-mentioned pharmaceuticals are prepared with physiological saline for feeding into the stomach. 9.2 Experimental animals: ICR mice, male, 20.0±1 g of body weight, secondary, are provided by the Experimental Animal Science Department of Capital Medical University, Beijing. The quality certificate number of mice is SOCK (DING) 2006-2008. […] The pharmaceuticals are fed into mouse's stomach once every day. After 1 hour of the last administration of drug on the eighth day, the mouse's tail (1 cm to the tail end) is taped on the horizontal support in an opened box, and the mouse represents the reversed hung status. The mouse head is away from the bottom of the opened box for about 10 cm, and the mouse is hung up for 6 minutes. The time of non-movement of the mouse for the last 5 minutes is recorded. 9.5 Statistic calculation: The experimental data are represented as X±SD, and the experimental result is calculated as one-way ANOVA by SPSS 11.5 statistic software."}}, "data": [{"smiles": "Fc1ccc([C@@H]2CCNC[C@H]2COc2ccc3c(c2)OCO3)cc1", "note": "[Paroxetine]", "values": [{"measurement": "Time of non-movement", "setting": "[1]; 3 mg/kg P.O. 7 days, 1 h after last dose, last 5 of 6 min", "result": "75.33 ± 22.91", "unit": "s"}, {"measurement": "Effect on time of non-movement after the mouse's tail is hung up (in words)", "setting": "[1]; middle dose of Embodiment 2, Paroxetine, significantly different from control", "result": "decrease the time of non-movement"}, {"measurement": "Decreased temperature", "setting": "[2]; 3 mg/kg P.O. 7 days, 4 h after Resetpine 2 mg/kg i.p.", "result": "2.38 ± 0.69", "unit": "°C"}, {"measurement": "Effect on reduced body temperature induced by Resetpine (in words)", "setting": "[2]; middle dose of Embodiment 2, Paroxetine", "result": "decrease the reduced body temperature induced by Resetpine"}, {"measurement": "Horizontal movement (cross-grid number)", "setting": "[3]", "result": "61.85 ± 21.68"}, {"measurement": "Vertical movement (standing number)", "setting": "[3]", "result": "14.69 ± 4.2"}, {"measurement": "Time of non-movement", "setting": "[4]; 3 mg/kg/d into the stomach, 1 h after last dose on the eighth day, last 5 of 6 min", "result": "53.27 ± 20.02", "unit": "s"}, {"measurement": "Effect on accumulative time of non-movement, tail-hanging (in words)", "setting": "[4]; high, middle and low doses of Embodiment 5, Paroxetine", "result": "obviously decrease the accumulative time of non-movement"}]}]}
